Experimental data: patent US20240376062A1, “COMPOUNDS FOR THE TREATMENT OF ALZHEIMER’S DISEASE” (BOARD OF TRUSTEES OF MICHIGAN STATE UNIVERSITY, priority 2021, published 2024)
“Also recorded” adds a separate entry of the source.

Columns and labels:
p-tau [1] = target: T1, p-tau (Homo sapiens, UniProt P10636); test: Photo-induced cross-linking (PICUP) assay of p-tau oligomerization; type: biochemical; settings: for dose dependence of inhibition of p-tau oligomerization: dose response experiments, FIG. 3 lower panel (B); for inhibition of p-tau oligomer formation (cross-linking): p-tau 6 μM preincubated with compound 50 μM for 24 hours
T1 construct: made in house
Description: p-Tau was diluted in 10 mM phosphate buffer (pH 7.4) at a final concentration of 10 μM and preincubated with different compounds for 24 h prior cross-linking. Different compounds were added to the p-tau solution at a final concentration of 12.5, 25, or 50 μM. The control consisted of samples without Ru(bpy), light exposition, and without compound. The reaction buffer consisted of 300 μM Ru(bpy), 6 mM ammonium persulfate. Prior light exposure, p-tau was diluted to a final concentration of 6 μM. Cross-linking was induced by irradiation, for 3 s, at a final volume of 20 μL, with a 53 W (120 V) incandescent lamp installed in a homemade dark-box. After irradiation, 8.3 μL of Lammeli loading buffer was immediately added to the solution, followed by incubation at 95° C. for 10 min. The cross-linked samples were separated on a 10% SDS-Page gel and visualized by Coomassie blue staining.
(§1) To examine how JF-19-73 affected p-tau fibrillization, two approaches were taken. Firstly, we used the Photo-Induced Cross-linking of Unmodified Proteins (PICUP) assay to investigate p-tau oligomerization under the influence of JF19-73 (FIG. 3). After being subjected to short light exposure, p-tau was cross-linked and resolved as a smear of higher molecular weight (lane 3, FIG. 3).^[6c] […] We further perform transmission electron microscopy to visualize the extent and morphology of p-tau fibrils.

SH-SY5Y cells = test: Cell viability assay, protection from aggregated p-tau and compound toxicity; type: cell-based, human; settings: for protection of SH-SY5Y cells against p-tau cytotoxicity: 0.8 μM p-tau, compound 8 μM (molar ratio 1:10)
Description: Cells were maintained in a 37° C., 5% CO2 incubator, in exponential growth, for the duration of experimentation. For this assay, cells were seeded in 96-well microtiter plates at a density of 5×10^3 SH-SY5Y cells per well for 24 h. Compounds freshly solubilized in DMSO were diluted in culture medium and aliquots containing sequential dilution of drugs were added subsequently after stimulation with 2 μM of p-tau. p-Tau was dissolved and incubated in 10 mM PBS (pH 7.4, 25° C.) 24 h before addition to cells. Compounds were tested at 2, 4, and 8 μM and DMSO concentration was maintained at 0.1% to avoid growth inhibition. […] Plates were incubated for 24 h in the presence of compounds and p-Tau. Cell-based assays were performed as previously described ((Liu et al, 2020, Sci. Rep. Hyperphosphorylated tau aggregation and cytotoxicity modulators screen identified prescription drugs linked to Alzheimer's disease and cognitive functions. Liu M, Dexheimer T, Sui D, Hovde S, Deng X, Kwok R, Bochar D A, Kuo M H. Sci Rep. 2020 Oct. 6; 10(1):16551. doi: 10.1038/s41598-020-73680-2.). The cell viability was calculated from fluorescence measured with a Synergy HT multi-mode microplate reader (BioTek, Winooski, VT). The data from experiments conducted in triplicate were corrected for the background fluorescence of the medium and was expressed as the mean percentage of fluorescence obtained for control DMSO-treated cells. The growth inhibition percentage was calculated with reference to DMSO-treated cells for each compound concentration. The results were obtained from at least three separated experiments. The cell viability assay was considered valid when the variability among data for a given set of conditions, within the same experiment, was less than 10% with respect to the mean value. All values represent means±SD (n=3).
Cell viability assays were performed using SH-SY5Y cells to evaluate the potential of the molecules representing the sulfonamide, sulfonylurea, and urea series to protect cells from aggregated p-tau (FIG. 5). The survival rate was assessed after treatment with 0.8 μM p-tau in the absence or the presence of JF-19-73, JF-19-43 (urea), JF(TT)-20-58 at 8 μM. […] It has been reported previously (Liu et al, 2020, Sci. Rep. Hyperphosphorylated tau aggregation and cytotoxicity modulators screen identified prescription drugs linked to Alzheimer's disease and cognitive functions. Liu M, Dexheimer T, Sui D, Hovde S, Deng X, Kwok R, Bochar D A, Kuo M H. Sci Rep. 2020 Oct. 6; 10(1):16551. doi: 10.1038/s41598-020-73680-2.) that not all effective p-tau aggregation inhibitors, as indicated by significant reductions in ThSmax, were cytoprotective.

p-tau [2] = target: T1, p-tau; test: Thioflavin-S (ThS) fluorescence assay of p-tau fibril formation; type: biochemical; settings: compound 100 μM, about 15x molar excess to p-tau
Description: p-Tau from the stock solution of 1 mM was added to 20 mM Tris buffer (pH 7.4) with 1 mM DTT and transferred to a black microplate 384 well plate with flat bottom and medium binding (greiner bio-one, ref 784076). Each well contained a final volume of 10 μL with a peptide final concentration of 6 μM. Experiments in the presence of p-tau were initiated by adding a solution of ThS at a final concentration of 20 μM with different compounds. Final compound concentrations ranged from 25 to 100 μM. The background sample consisted of 0.1% DMSO in buffer without p-tau. The plate was sealed and read with the excitation and emission wavelengths set at 440 and 490 nm, respectively, with a Synergy HT multi-mode microplate reader (BioTek, Winooski, VT). Measurements were taken at 37° C. every 10 min for 16 hours. Samples were measured in three replicates and the experiments were repeated three times using different p-tau stock solutions. For each time point, arbitrary units of fluorescence were calculated from the mean values normalized against the maximum value in each completed assay. Arbitrarily, the maximum value (100%) for the fluorescence intensity was established for p-tau with 0.1% DMSO.
The structure of three newly synthesized small molecules representing the sulfonamide (JF-19-73), sulfonylurea (JF(Tr)-20-58), and urea (JF-19-43, JF(TT)-19-5) series are presented in FIG. 1. These molecules were assessed for their anti-aggregation and cytoprotection effects using biophysical methods and survival assays on human neuroblastoma SH-SY5Y cells, respectively. […] First, the formation of fibrils was monitored by measuring the fluorescence intensity of the dye thioflavin-S (ThS) with the excitation and emission wavelengths set at 440 and 490 nm. The fluorescent dye ThS specifically binds to the cross β-sheet structure of protein fibrils, providing a strong fluorescence emission.^[14] Since the fluorescence emission increases with fibrils formation, the kinetic process of fibrillization is routinely assessed using ThS fluorescence as the primary assays to screen for the candidate inhibitors. […]

p-tau [3] = target: T1, p-tau; test: Transmission electron microscopy of p-tau fibrils; type: biochemical; settings: p-tau 20 μM, compound 100 μM, 24 hours, vs. DMSO
Description: […] A volume of 10 μL was applied on a 400-mesh Formvar-carbon-coated cooper grid (Electron Microscopy Sciences, Hatfield, PA) to confirm the presence or the absence of fibrils. The grids were incubated for 1 minute and washed three times with distilled water. They were carefully air-dried and incubated for 1 minute in a fresh solution of 1% uranyl acetate. Samples were air-dried and observed using a transmission microscope (JEOL 1400 Flash, Japan). Pictures were acquired at an accelerating voltage of 100 kV and magnification of 40 and 80 k.
as §1

[4] = Solubility in aqueous phase; type: physicochemical

T1 sequence (P10636 1-412 isoform P10636-7): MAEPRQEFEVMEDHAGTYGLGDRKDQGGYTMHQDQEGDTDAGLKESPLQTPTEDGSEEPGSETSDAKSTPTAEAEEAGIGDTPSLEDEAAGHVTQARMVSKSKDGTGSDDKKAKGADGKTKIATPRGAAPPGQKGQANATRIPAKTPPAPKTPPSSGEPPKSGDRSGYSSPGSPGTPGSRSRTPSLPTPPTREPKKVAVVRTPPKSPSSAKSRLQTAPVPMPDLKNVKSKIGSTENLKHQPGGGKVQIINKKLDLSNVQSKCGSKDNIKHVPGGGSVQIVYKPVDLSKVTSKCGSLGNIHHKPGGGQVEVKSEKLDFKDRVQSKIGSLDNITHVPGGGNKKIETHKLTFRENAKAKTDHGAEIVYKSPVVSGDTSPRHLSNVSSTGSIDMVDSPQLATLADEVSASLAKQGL

| Compound | dose dependence of inhibition of p-tau oligomerization (p-tau [1]) | inhibition of p-tau oligomer formation (cross-linking) (p-tau [1]) | inhibition of p-tau oligomer formation (cross-linking) (p-tau [1]; listed as JF19-43) | protection of SH-SY5Y cells against p-tau cytotoxicity (SH-SY5Y cells) | inhibition of p-tau fibril formation (ThS fluorescence intensity, ThSmax) (p-tau [2]) | p-tau fibril formation by TEM (p-tau [3]) | toxicity of compound to SH-SY5Y cells (SH-SY5Y cells; compound 8 μM without p-tau) | protection against p-tau cytotoxicity, dose dependence (SH-SY5Y cells; compound 2, 4 and 8 μM) | solubility (S) in aqueous phase [4] | inhibition of p-tau oligomer formation (cross-linking) (p-tau [1]; listed as JF(T)-19-58) |
| --- | --- | --- | --- | --- | --- | --- | --- | --- | --- | --- |
| O=C(Nc1ccccc1)Nc1ccc2c(c1)Cc1ccccc1-2 [JF(TT)-19-5] | negative control | had no effect | – | – | – | – | – | – | – | – |
| CCNC(=O)Nc1ccc2c(c1)Cc1ccccc1-2 [JF-19-43] | – | had no effect | high molecular weight p-tau oligomers | negative controls | – | – | – | – | – | – |
| O=S(=O)(Nc1ccc2c(c1)Cc1ccccc1-2)c1ccc(Cl)cc1 [JF-19-73] | dose-dependent manner | inhibits fibril (ThSmax) and oligomer (Oligo. Inh.) formation; also recorded: stopped formation of p-tau oligomers; also recorded: effectively prevented this crosslinking | – | protects SH-SY5Y cells against p-tau | inhibits fibril; also recorded: most potent to inhibit fibril formation | less fibrils; also recorded: clear effects on p-tau fibrillization | non-toxic to cells | protected cell in a dose-dependent manner | > 100 µM | – |
| O=C(Nc1ccc(Cl)cc1)Nc1ccc2c(c1)Cc1ccccc1-2 [JF(NBMI)-20-45] | – | – | – | – | not a potent inhibitor of p-tau aggregation | – | – | – | – | – |
| O=C(Nc1ccc2c(c1)Cc1ccccc1-2)NS(=O)(=O)c1ccc(Cl)cc1 [JF(TT)-20-58] | – | high molecular weight p-tau oligomers | – | negative controls | not a potent inhibitor of p-tau aggregation | – | – | – | – | had no effect |
